Results reported in paper PMC8913746, “An open-like conformation of the sigma-1 receptor reveals its ligand entry pathway” (Nature Communications, 2022).
Residue numbers refer to the chain shown, from its start. Values joined by “and” are separate entries in the source; they are usually repeats but may differ in a detail not shown here. Equal values may be shown once.

How the values were obtained:
[1] = biological target: T1, xlσ1R-C203 (Xenopus laevis, UniProt Q6DCU6, Y203C); assay: ITC binding of PRE084 to xlσ1R-C203 before/after mPEG-Mal-5K modification; details: for number of available binding sites per protomer (stoichiometry): mean ± SD; for C203 stoichiometry, After modification: mPEG-Mal-5K
T1 construct: The gene encoding the full-length wild-type σ1R from Xenopus laevis; hemagglutinin signal peptide (N); decahistidine (His10) (N); TEV protease recognition site (N); made in house; host or cells: Pichia pastoris GS115
T1 sequence (Q6DCU6 1-221 Y203C): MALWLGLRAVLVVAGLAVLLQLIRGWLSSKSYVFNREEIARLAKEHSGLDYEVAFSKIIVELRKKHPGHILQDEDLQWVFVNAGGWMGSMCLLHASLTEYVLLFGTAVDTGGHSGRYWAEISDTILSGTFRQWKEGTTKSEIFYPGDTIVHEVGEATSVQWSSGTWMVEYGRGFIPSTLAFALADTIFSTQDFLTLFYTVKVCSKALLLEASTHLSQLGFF

[2] = biological target: T2, xlσ1R-C179/C203 (Xenopus laevis, UniProt Q6DCU6, L179C/Y203C); assay: ITC binding of PRE084 to xlσ1R-C179/C203 (disulfide oxidation / re-reduction); details: ITC; for number of available binding sites per protomer (stoichiometry): mean ± SD
T2 construct: The gene encoding the full-length wild-type σ1R from Xenopus laevis; hemagglutinin signal peptide (N); decahistidine (His10) (N); TEV protease recognition site (N); made in house; host or cells: Pichia pastoris GS115
T2 sequence (Q6DCU6 1-221 L179C/Y203C): T1 sequence (Q6DCU6 1-221 Y203C) with L179C

[3] = biological target: T3, xlσ1R-C179 (Xenopus laevis, UniProt Q6DCU6, L179C); assay: ITC binding of PRE084 to xlσ1R-C179 before/after mPEG-Mal-5K modification; details: for C179 stoichiometry, Before modification / number of available binding sites per protomer (stoichiometry) / C179 stoichiometry, After modification: ITC; for number of available binding sites per protomer (stoichiometry): mean ± SD; for C179 stoichiometry, After modification: mPEG-Mal-5K
T3 construct: The gene encoding the full-length wild-type σ1R from Xenopus laevis; hemagglutinin signal peptide (N); decahistidine (His10) (N); TEV protease recognition site (N); made in house; host or cells: Pichia pastoris GS115
T3 sequence (Q6DCU6 1-221 L179C): T1 sequence (Q6DCU6 1-221 Y203C) with L179C, C203Y

[4] = ITC, individual repeats (source data Fig. 4e)
[5] = Mean of repeats (source data Fig. 4b)
[6] = individual repeats (source data Fig. 4b)
[7] = Mean of repeats (source data Fig. 4e)
[8] = individual repeats (source data Fig. 4e)

## O=C(OCCN1CCOCC1)C1(c2ccccc2)CCCCC1 [PRE084, [2-(morpholin-4-yl)ethyl] 1-phenylcyclohexane-1-carboxylate]
[1]; ITC, after mPEG-Mal-5K modification
  number of available binding sites per protomer (stoichiometry): 0.69 ± 0.04
[1]; ITC, before mPEG-Mal-5K modification
  number of available binding sites per protomer (stoichiometry): 0.87 ± 0.01
[1]; [4]
  C203 stoichiometry, Before modification: 0.883 and 0.859 and 0.873
  C203 stoichiometry, After modification: 0.635 and 0.734 and 0.712 and 0.677
[1]; ITC, Mean of repeats (source data Fig. 4e)
  C203 stoichiometry, After modification: 0.6895
[1]; after mPEG-Mal-5K modification
  blockade percentage (reduction of available binding sites): ~ 21%
[2]
  increase of Kd after oxidation compared to before oxidation: ~ 9 fold
[2]; [5]
  C179/C203 stoichiometry, After oxidation: 0.1833
  C179/C203 stoichiometry, Before oxidation: 0.9178
  C179/C203 stoichiometry, Re-reduction: 0.5202
[2]; after oxidation (disulfide formed)
  number of available binding sites per protomer (stoichiometry): 0.18 ± 0.02
[2]; before oxidation
  number of available binding sites per protomer (stoichiometry): 0.92 ± 0.01
[2]; [6]
  C179/C203 stoichiometry, After oxidation: 0.179 and 0.210 and 0.161
  C179/C203 stoichiometry, Before oxidation: 0.933 and 0.929 and 0.922 and 0.901 and 0.904
  C179/C203 stoichiometry, Re-reduction: 0.502 and 0.537 and 0.513 and 0.529
[2]; oxidized sample re-reduced with β-mercaptoethanol
  number of available binding sites per protomer (stoichiometry): 0.52 ± 0.02
[3]; [7]
  C179 stoichiometry, Before modification: 0.8482
  C179 stoichiometry, After modification: 0.4808
[3]; after mPEG-Mal-5K modification
  number of available binding sites per protomer (stoichiometry): 0.48 ± 0.07
  blockade percentage (reduction of available binding sites): ~ 44%
[3]; before mPEG-Mal-5K modification
  number of available binding sites per protomer (stoichiometry): 0.85 ± 0.09
[3]; [8]
  C179 stoichiometry, Before modification: 0.787 and 0.943 and 0.756 and 0.907
  C179 stoichiometry, After modification: 0.399 and 0.462 and 0.576 and 0.486
